Laboratory results published in US20090162457A1, “RESVERATROL AND/OR GRAPE LEAF EXTRACT AS I. A. ENDURANCE IMPROVER, ANTI-AGING AGENT, MUSCLE STRENGTH IMPROVER” (KAO CORPORATION, priority 2005, published 2009).

How the values were obtained:
Type in all cases: in vivo
[1] = system: SAM-P1 male mice (senescence accelerated mice); assay: Total muscle weight (gastrocnemius, soleus, plantaris) per body weight
Description: (§1) After preliminary individual rearing of 13-week-old SAM-P1 male mice (senescence accelerated mice) and SAM-R1 male mice (ordinarily aged mice) for 5 weeks, they were habituated to treadmill running and their maximal running time was measured. The measurement was started after the mice were kept sedentary in the treadmill to accustom them to the environment. The belt speed was started at 10 m/min. The mice were caused to run for 5 minutes on the belt having a speed of 10 m/min, 5 minutes at a speed of 15 m/min, 60 minutes at a speed of […], 60 minutes at a speed of 22 m/min, 60 minutes at a speed of 24 m/min, 60 minutes at a speed of 26 m/min and then at a speed of 28 m/min. […] To avoid a difference in the maximal running time between strains, the mice were divided into three groups, that is, SAM-R1 control group, SAM-P1 control group, and SAM-P1 resveratrol group (each group consisting of 5 to 8 mice). Each mouse was exercised at 15 m/min for 30 minutes three times a week during the period of experiment. The maximal running time of each group was measured after rearing for 8 weeks. In addition, as energy metabolism at rest, oxygen consumption of each group was measured by breath analysis after rearing for 9 weeks. For this analysis, “Oxymax system” (product of Columbus Instruments) equipped with 8 chambers was used. […] From their weights, total muscle weight was determined.

[2] = system: SAM-P1 male mice (senescence accelerated mice); assay: Maximal running time on treadmill (anti-aging effect, endurance)
Description: as §1

[3] = system: SAM-P1 male mice (senescence accelerated mice); assay: Maximum muscle strength of extensor digitorum longus muscle under electrical stimulation
Description: After the preliminary individual rearing of 13-week-old SAM-P1 male mice (senescence accelerated mice) and SAM-R1 male mice (ordinarily aged mice) for 5 weeks, they were habituated to treadmill running. Then, they were divided into SAM-R1 control group, SAM-P1 control group, SAM-P1 exercise group, SAM-P1 resveratrol group/exercise (each group consisting of 5 mice) They were reared for 13 weeks on a diet prepared in accordance with the formulation shown in Table 9. Exercise at 15 m/min was imposed to each mouse of the exercise group for 30 minutes three times a week during the period of experiment. After rearing for 13 weeks, the mice were sacrificed for dissection. Their extensor digitorum longus muscle was fixed to a transducer (“FORT100”, product of World Precision Instruments, Inc.) in a Krebs solution (aeration condition: 95% oxygen, 5% carbon dioxide) of 37° C. and then, electrically stimulated (at 140 Hz for 0.5 msec), whereby the maximum muscle strength was measured.

[4] = system: SAM-P1 male mice (senescence accelerated mice); assay: Energy metabolism at rest: oxygen consumption by breath analysis (Oxymax system)
Description: as §1

Balb/c male mice = assay: Mice maximal swimming time measurement in an adjustable-current swimming pool (endurance-improving/anti-fatigue effect); conditions: Test 1; for Maximal swimming time: flow rate 7 L/min
Description: An endurance-improving/anti-fatigue effect was evaluated in accordance with the mice maximal swimming time measurement (Reference: Am. J. Physiol. Regul. Integr. Comp. Physiol., 288, 708-715 (2005)) in an adjustable-current swimming pool. The pool used for this test made of transparent acryl (90 cm long×45 cm wide×45 cm deep) was filled with water to the depth of 38 cm and maintained at 34° C. by a heater. The current in the pool was generated by circulating water with a pump (“C-P60H”, product of Hitachi, Ltd.). The flow rate was regulated by opening and closing of a valve of a water flow meter (product of Tokyo Flow Meter Kenkyujo) connected to the pump. The flow rate was monitored by a current meter (“SV-101-25S”, product of Sanko Seimitsu Kogyo). As a test animal, five-week-old Balb/c male mice (Charles River) were used. They were habituated by preliminary rearing for 1 week under a predetermined rearing environment (23±2° C., light period: from 7:00 am to 7:00 pm). For the next one week, training was performed three times a week in order to accustom the mice to swimming (swimming for 30 minutes at a flow rate of 5 L/min on Day 1, and for 30 minutes at a flow rate of 6 L/min on Day 3 and Day 5). […] To prevent a difference between groups in the maximal swimming time, mice were classified into two groups each consisting of 8 mice, that is, a test diet group and control diet group. During this term, maximal swimming time measurement (7 L/min) and training (6 L/min, 30 minutes) were each conducted once a week.

Q: What does the source list for `Oc1ccc(C=Cc2cc(O)cc(O)c2)cc1` [Resveratrol, 3,4′,5-trihydroxy-stilbene]?
A: Relative muscle weight (muscle weight per body weight) ([1]; after rearing for 10 weeks on feed with 0.2% resveratrol, SAM-P1 control 0.64 ± 0.02): 0.81 ± 0.07%; Muscle weight compared with SAM-P1 control group (in words) ([1]; after rearing for 10 weeks, 0.2% resveratrol in feed): significantly large compared with that of the SAM-P1 control group; Maximal running time ([2]; after rearing for 8 weeks on feed with 0.2% resveratrol, SAM-P1 control 100.0 ± 5.8): 141.3 ± 19.7 min; Maximal running time compared with SAM-P1 control group (in words) ([2]; after rearing for 8 weeks, 0.2% resveratrol in feed): significantly long compared with that of the SAM-P1 control group; Maximum muscle strength of extensor digitorum longus muscle ([3]; resveratrol (0.2% in feed) plus exercise, reared for 10 weeks per table title (13 weeks per text), SAM-P1 control 9.8 ± 0.3, SAM-P1 exercise 13.0 ± 1.8): 15.0 ± 1.8 g; Maximum muscle strength compared with SAM-P1 control group (in words) ([3]; resveratrol-containing feed (0.2%) plus exercise): significantly high; Oxygen consumption (average for 24 hours) ([4]; after rearing for 9 weeks on feed with 0.2% resveratrol, SAM-P1 control 46.9 ± 1.3): 3.43 ± 0.258 L/h/kg; Oxygen consumption compared with SAM-P1 control group (in words) ([4]; after rearing for 9 weeks, 0.2% resveratrol in feed): significantly high compared with that of the SAM-P1 control group; Maximal swimming time (Balb/c male mice; after rearing for 10 weeks on diet with 0.2 mass % resveratrol, control diet 31.15 ± 2.57): 44.80 ± 4.56 min; Maximal swimming time compared with control diet group (in words) (Balb/c male mice; after rearing for 10 weeks, 0.2 mass % resveratrol in diet): significantly extended the maximal swimming time; Maximal swimming time (Balb/c male mice; before rearing (baseline), Balb/c male mice): 28.50 ± 1.75 min
